Source: publication PMC8810914 (Biochemistry, 2021)

Legend:
Udorn M2 WT = Udorn M2 WT (Influenza A virus, UniProt P0DOF5); assay: two-electrode voltage clamp electrophysiological; assay type: binding, influenza A virus A/Udorn/72; conditions: amantadine vs rimantadine
M2 WT = conditions: only binding curve recorded; upper limit of the true Kd; cited from earlier work

Chain of Udorn M2 WT (P0DOF5 whole entry, looked up): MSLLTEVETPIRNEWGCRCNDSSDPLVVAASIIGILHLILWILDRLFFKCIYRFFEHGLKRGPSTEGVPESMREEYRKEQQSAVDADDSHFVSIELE

Compound | binding affinity to Udorn M2 WT weaker than rimantadine (Udorn M2 WT) | Kd (M2 WT) [µM]
NC12CC3CC(CC(C3)C1)C2 [amantadine] | about 10 fold | 
CC(N)C12CC3CC(CC(C3)C1)C2 (racemic) [rimantadine (racemic), rimantadine] |  | 7
C[C@H](N)C12CC3CC(CC(C3)C1)C2 [(S)-rimantadine] |  | 3.9
